From patent publication US20240270821A1, “GIP/GLP1/GCG TRI-RECEPTOR AGONISTS AND USES THEREOF” (priority 2023, published 2024)
pEC50: −log10 of the molar value. Like-named read-outs stand apart in the source and are kept apart here. Starred links: 1 amine or outer side, 2 acyl side, 3 side chain; linkers in the order of their positions; H or OH if unused. Non-standard residues stand in square brackets, D forms with d. Residues, ends and D or L forms follow the SMILES beside them. Groups on a side chain read outwards from the residue. No end group written: not given here. *: point of attachment. C20 diacid = O=C(O)CCCCCCCCCCCCCCCCCCC(=O)*; C18 diacid = O=C(O)CCCCCCCCCCCCCCCCC(=O)*; αMePhe(2-F) = C[C@](N)(Cc1ccccc1F)C(=O)O; γGlu = O=C(O)[C@H](CCC(=O)[*:2])N[*:1]; αMe4Pal = C[C@](N)(Cc1ccncc1)C(=O)O; αMeY = C[C@](N)(Cc1ccc(O)cc1)C(=O)O; 4Pal = N[C@@H](Cc1ccncc1)C(=O)O; αMeL = CC(C)C[C@](C)(N)C(=O)O; αMeS = C[C@](N)(CO)C(=O)O; Orn = NCCC[C@H](N)C(=O)O; AEEA = NCCOCCOCC(=O)O; Aib = CC(C)(N)C(=O)O

Columns and labels:
Type in all cases: cell-based
[1] = molecular target: T1, hGIPR (Homo sapiens, UniProt P48546); assay: Functional cAMP activity in the presence of 1% HSA; details: read-out: cAMP Rel EC50, hGIPR
T1 sequence (P48546 22-466): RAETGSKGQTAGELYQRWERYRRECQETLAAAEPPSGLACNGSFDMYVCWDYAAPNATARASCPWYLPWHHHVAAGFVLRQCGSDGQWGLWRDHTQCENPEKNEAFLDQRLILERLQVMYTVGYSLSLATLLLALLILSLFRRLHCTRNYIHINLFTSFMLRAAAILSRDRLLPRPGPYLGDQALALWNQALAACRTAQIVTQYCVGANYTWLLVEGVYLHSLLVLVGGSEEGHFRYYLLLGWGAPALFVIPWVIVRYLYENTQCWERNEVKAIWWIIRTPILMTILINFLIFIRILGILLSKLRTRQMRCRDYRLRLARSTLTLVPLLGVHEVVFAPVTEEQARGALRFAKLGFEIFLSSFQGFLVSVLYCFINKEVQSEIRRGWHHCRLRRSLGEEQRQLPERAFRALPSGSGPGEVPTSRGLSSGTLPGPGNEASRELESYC

[2] = molecular target: T2, hGLP-1R (Homo sapiens, UniProt P43220); assay: Functional cAMP activity in the presence of 1% HSA; details: read-out: cAMP Rel EC50, hGLP-1R
T2 sequence (P43220 24-463): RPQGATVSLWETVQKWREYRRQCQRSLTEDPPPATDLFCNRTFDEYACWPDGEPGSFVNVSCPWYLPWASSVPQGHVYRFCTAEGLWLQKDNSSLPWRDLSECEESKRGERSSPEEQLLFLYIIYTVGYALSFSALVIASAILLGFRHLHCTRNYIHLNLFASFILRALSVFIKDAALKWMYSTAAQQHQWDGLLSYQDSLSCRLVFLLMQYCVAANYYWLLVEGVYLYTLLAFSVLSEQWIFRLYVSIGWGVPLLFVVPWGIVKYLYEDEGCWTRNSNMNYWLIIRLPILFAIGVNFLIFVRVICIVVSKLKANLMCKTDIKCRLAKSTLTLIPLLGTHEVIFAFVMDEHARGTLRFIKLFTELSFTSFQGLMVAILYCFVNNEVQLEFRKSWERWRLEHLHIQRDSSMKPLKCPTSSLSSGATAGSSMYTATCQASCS

[3] = molecular target: human GcgR (Homo sapiens, UniProt P47871); assay: Functional cAMP activity in the presence of 1% HSA; details: read-out: cAMP Rel EC50, hGcgR
Sequence of human GcgR (P47871 26-477): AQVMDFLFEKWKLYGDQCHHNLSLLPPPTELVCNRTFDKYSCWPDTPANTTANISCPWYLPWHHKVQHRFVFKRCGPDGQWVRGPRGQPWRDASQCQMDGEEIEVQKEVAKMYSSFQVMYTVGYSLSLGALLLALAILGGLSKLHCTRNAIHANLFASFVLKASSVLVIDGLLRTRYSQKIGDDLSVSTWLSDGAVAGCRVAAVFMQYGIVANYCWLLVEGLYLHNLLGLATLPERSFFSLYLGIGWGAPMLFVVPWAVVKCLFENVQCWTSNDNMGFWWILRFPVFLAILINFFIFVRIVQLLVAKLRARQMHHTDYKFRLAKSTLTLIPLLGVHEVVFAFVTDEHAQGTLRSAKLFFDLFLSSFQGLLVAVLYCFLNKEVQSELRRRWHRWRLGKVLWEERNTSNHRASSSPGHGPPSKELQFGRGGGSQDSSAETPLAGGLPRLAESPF

[4] = molecular target: T1, hGIPR; assay: Functional cAMP activation in the presence of 0.1% casein (no HSA); details: read-out: Relative cAMP EC50, hGIPR;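 as to Relative cAMP EC50, hGIPR: intracellular cAMP rise after 30 min at 37 °C read by HTRF against a standard curve, scaled between buffer alone (0%) and top control ligand concentration (100%), four-parameter fit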;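 as to Relative cAMP EC50, hGLP-1R: intracellular cAMP rise after 30 min at 37 °C read by HTRF, normalized between buffer only (0%) and maximal control ligand (100%), four-parameter variable-slope fit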;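 as to Relative cAMP EC50, hGcgR: intracellular cAMP rise after 30 min at 37 °C, read by HTRF against a cAMP standard curve, scaled from buffer only (0%) to maximal control ligand response (100%)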
[5] = molecular target: T2, hGLP-1R; assay: as above; details: read-out: Relative cAMP EC50, hGLP-1R
[6] = molecular target: hGcgR (Homo sapiens, UniProt P47871); assay: as above; details: read-out: Relative cAMP EC50, hGcgR;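 also: intracellular cAMP rise after 30 min at 37 °C, read by HTRF against a cAMP standard curve, scaled from buffer only (0%) to maximal control ligand response (100%)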
Sequence of hGcgR (P47871 26-477): as above

[7] = in the presence of 0.1% casein (no HSA), geometric mean
[8] = 0.1% casein, no HSA, geometric mean

Molecule | pEC50 [1] | pEC50 [2] | pEC50 [3] | pEC50 [4, 7] | pEC50 [5, 7] | pEC50 [6, 7] | pEC50 [4] | pEC50 [5] | pEC50 [6] | pEC50 [4, 8] | pEC50 [5, 8] | pEC50 [6, 8]
H-Y[Aib]QGT[αMePhe(2-F)]TSD[4Pal]SI[αMeL]LD[Orn]K([AEEA-γGlu-C18 diacid])AQ[αMe4Pal][Orn]FI[dE][αMeY]LIEGGPSSGAPPPESEE-NH2 [Example 756] | 8.79 | 7.55 | 6.43 | – | – | – | 11.02 | 9.67 | 8.65 | – | – | –
H-Y[Aib]QGTFTSD[4Pal]S[Orn][αMeL]LD[Orn]K([γGlu-γGlu-C18 diacid])AQ[αMe4Pal]EFIE[αMeY]LIEGGPSSGAPPPSGSEE-NH2 [Example 973] | 7.22 | 5.94 | 5.64 | 9.30 | 8.21 | 7.75 | – | – | – | – | – | –
Y[Aib]QGTFTSD[4Pal]SQ[αMeL]LDKK([AEEA-γGlu-C18 diacid])AQ[αMe4Pal]AFIEYLIE[dA]GPSSGAPPPSGS-NH2 [Example 829] | 7.65 | 6.89 | 6.49 | 9.91 | 8.94 | 8.62 | – | – | – | – | – | –
H-Y[Aib]QGT[αMePhe(2-F)]TSD[4Pal][αMeS]I[αMeL]LD[Orn]K([AEEA-γGlu-C18 diacid])AQ[αMe4Pal]EFI[dE][αMeY]LIEGGPSSGAPPPEGE-NH2 [Example 1148] | 9.06 | 7.35 | 6.76 | 11.10 | 9.52 | 8.80 | – | – | – | – | – | –
Y[Aib]QGTFTSD[4Pal]SR[αMeL]LDKK([AEEA-γGlu-C18 diacid])AQ[αMe4Pal]AFIEYLIEGGESSGAPPPSGS-NH2 [Example 792] | 6.97 | 6.21 | 6.42 | 9.26 | 8.52 | 8.72 | – | – | – | – | – | –
H-Y[Aib]QGTFTSDFS[Orn][αMeL]LDKK([AEEA-γGlu-C20 diacid])AQ[Aib]AFIEYLLAGGPSSGEPPPEGE-NH2 [Example 102] | 6.80 | 5.97 | 5.57 | 9.23 | 8.47 | 8.01 | – | – | – | – | – | –
H-Y[Aib]QGTFTSD[4Pal]SQ[αMeL]LD[Orn]K([AEEA-γGlu-C18 diacid])AQ[Aib]AFIE[αMeY]LLEGGPSSGAPPPSGS-NH2 [Example 911] | 7.58 | 6.59 | 5.62 | 9.71 | 8.96 | 8.02 | – | – | – | – | – | –
H-Y[Aib]QGTFTSD[4Pal]SQ[αMeL]LDKK([AEEA-γGlu-C18 diacid])AQ[Aib]AFIE[αMeY]LIEGGPSSGAPPPEGS-NH2 [Example 853] | 7.49 | 6.99 | 5.35 | 9.65 | 9.29 | 7.58 | – | – | – | – | – | –
H-Y[Aib]QGT[αMePhe(2-F)]TSD[4Pal][αMeS]I[αMeL]LD[Orn]QAQ[αMe4Pal]EFI[dE][αMeY]LIEGGPSSGAPPPSGSE-NH2 [Example 1233] | 11.01 | 8.97 | 8.00 | – | – | – | – | – | – | 10.92 | 8.96 | 8.02

Further lines, with some results ahead:

pEC50 [1] | pEC50 [2] | pEC50 [3] | pEC50 [4, 7] | pEC50 [5, 7] | pEC50 [6, 7] | Molecule | pEC50 [4] | pEC50 [5] | pEC50 [6] | pEC50 [4, 8] | pEC50 [5, 8] | pEC50 [6, 8]
7.95 | 7.53 | 6.79 | 10.42 | 9.44 | 8.87 | CC[C@H](C)[C@H](NC(=O)[C@H](Cc1ccccc1)NC(=O)[C@H](CCCN)NC(=O)C(C)(C)NC(=O)[C@H](CCC(N)=O)NC(=O)[C@H](C)NC(=O)[C@H](CCCCNC(=O)COCCOCCNC(=O)CC[C@H](NC(=O)CCCCCCCCCCCCCCCCC(=O)O)C(=O)O)NC(=O)[C@H](CCCN)NC(=O)[C@H](CC(=O)O)NC(=O)[C@H](CC(C)C)NC(=O)[C@](C)(CC(C)C)NC(=O)[C@@H](NC(=O)[C@](C)(CO)NC(=O)[C@H](Cc1ccncc1)NC(=O)[C@H](CC(=O)O)NC(=O)[C@H](CO)NC(=O)[C@@H](NC(=O)[C@](C)(Cc1ccccc1F)NC(=O)[C@@H](NC(=O)CNC(=O)[C@H](CCC(N)=O)NC(=O)C(C)(C)NC(=O)[C@@H](N)Cc1ccc(O)cc1)[C@@H](C)O)[C@@H](C)O)[C@@H](C)CC)C(=O)N[C@H](CCC(=O)O)C(=O)N[C@@](C)(Cc1ccc(O)cc1)C(=O)N[C@@H](CC(C)C)C(=O)N[C@@H](CC(C)C)C(=O)N[C@@H](CCC(=O)O)C(=O)NCC(=O)NCC(=O)N1CCC[C@H]1C(=O)N[C@@H](CO)C(=O)N[C@@H](CO)C(=O)NCC(=O)N[C@@H](CCC(=O)O)C(=O)N1CCC[C@H]1C(=O)N1CCC[C@H]1C(=O)N1CCC[C@H]1C(=O)N[C@@H](CCC(=O)O)C(N)=O [Example 377] (H-Y[Aib]QGT[αMePhe(2-F)]TSD[4Pal][αMeS]I[αMeL]LD[Orn]K([AEEA-γGlu-C18 diacid])AQ[Aib][Orn]FI[dE][αMeY]LLEGGPSSGEPPPE-NH2) | – | – | – | – | – | –
7.82 | 6.59 | 5.48 | 10.42 | 9.18 | 7.95 | H-Y[Aib]QGT[αMePhe(2-F)]TSDYSILLDKQAQK([AEEA-AEEA-γGlu-C20 diacid])AFIEYLLEGGPSSGEPPPSEG-NH2 [Example 345] | – | – | – | – | – | –
7.33 | 6.82 | 5.85 | 9.53 | 9.34 | 8.21 | H-Y[Aib]QGTFTSDYSI[αMeL]LDKQAAK([AEEA-AEEA-γGlu-C20 diacid])QFVEWLIA[Aib]GPSSGEPPPGSG-NH2 [Example 335] | – | – | – | – | – | –
8.38 | 7.25 | 6.10 | 10.32 | 9.30 | 8.21 | H-Y[Aib]QGTFTSD[4Pal]SQ[αMeL]LD[Orn]K([dE-γGlu-C18 diacid])AQ[αMe4Pal]QFIQ[αMeY]LIE[Aib]GPSSGEPPPSGGGE-NH2 [Example 1129] | – | – | – | – | – | –
7.04 | 6.01 | 5.70 | 9.46 | 8.40 | 8.20 | H-Y[Aib]QGTFTSDFS[Orn][αMeL]LDKK([AEEA-γGlu-C20 diacid])AQ[Aib]AFIEYLLAGGTSSGEPPPSGE-NH2 [Example 106] | – | – | – | – | – | –
8.23 | 7.19 | 6.08 | 10.29 | 9.21 | 8.23 | H-Y[Aib]QGTFTSD[4Pal]SQ[αMeL]LD[Orn]K([γGlu-γGlu-C18 diacid])AQ[αMe4Pal]AFIE[αMeY]LIA[Aib]GPSSGEPPPSGSEE-NH2 [Example 1094] | – | – | – | – | – | –
8.50 | 7.27 | 6.90 | 10.32 | 9.11 | 8.86 | H-Y[Aib]QGTFTSD[4Pal][αMeS]Q[αMeL]LD[Orn]K([dE-γGlu-C18 diacid])AQ[αMe4Pal]QFIQ[αMeY]LIE[Aib]GPSSGEPPPSGGGE-NH2 [Example 1183] | – | – | – | – | – | –
9.31 | 7.66 | 6.95 | – | – | – | H-Y[Aib]QGT[αMePhe(2-F)]TSD[4Pal][αMeS]I[αMeL]LD[Orn]K([γGlu-γGlu-C18 diacid])AQ[αMe4Pal]EFI[dE][αMeY]LIEGGPSSGEPPPSGGGE-NH2 [Example 744] | 11.07 | 9.56 | 8.98 | – | – | –
7.64 | 6.80 | 6.08 | 9.72 | 8.96 | 8.14 | H-Y[Aib]QGTFTSD[4Pal]SQ[αMeL]LD[Orn]K([γGlu-γGlu-C18 diacid])AQ[αMe4Pal]AFIEYLIAGGPSSGEPPPSGSE [Example 977] | – | – | – | – | – | –
7.70 | 6.28 | 6.03 | 9.89 | 8.48 | 8.17 | CC[C@H](C)[C@H](NC(=O)[C@H](Cc1ccccc1)NC(=O)[C@H](C)NC(=O)C(C)(C)NC(=O)[C@H](CCC(N)=O)NC(=O)[C@H](C)NC(=O)[C@H](CCCCNC(=O)COCCOCCNC(=O)COCCOCCNC(=O)CC[C@H](NC(=O)CCCCCCCCCCCCCCCCC(=O)O)C(=O)O)NC(=O)[C@H](CCCCN)NC(=O)[C@H](CC(=O)O)NC(=O)[C@H](CC(C)C)NC(=O)[C@](C)(CC(C)C)NC(=O)[C@H](CCCCN)NC(=O)[C@H](CO)NC(=O)[C@H](Cc1ccccc1)NC(=O)[C@H](CC(=O)O)NC(=O)[C@H](CO)NC(=O)[C@@H](NC(=O)[C@H](Cc1ccccc1)NC(=O)[C@@H](NC(=O)CNC(=O)[C@H](CCC(N)=O)NC(=O)C(C)(C)NC(=O)[C@@H](N)Cc1ccc(O)cc1)[C@@H](C)O)[C@@H](C)O)C(=O)N[C@@H](CCC(=O)O)C(=O)N[C@@H](Cc1ccc(O)cc1)C(=O)N[C@@H](CC(C)C)C(=O)N[C@@H](CC(C)C)C(=O)N[C@@H](C)C(=O)NCC(=O)NCC(=O)N1CCC[C@H]1C(=O)N[C@@H](CO)C(=O)N[C@@H](CO)C(=O)NCC(=O)N[C@@H](CCC(=O)O)C(=O)N1CCC[C@H]1C(=O)N1CCC[C@H]1C(=O)N1CCC[C@H]1C(=O)N[C@@H](CO)C(=O)N[C@@H](CCC(=O)O)C(=O)NCC(N)=O [Example 25] | – | – | – | – | – | –
